This note sets out measurements from ChEMBL document CHEMBL5291721, “A preclinical secondary pharmacology resource illuminates target-adverse drug reaction associations of marketed drugs” (Nat Commun, 2023).

Test [1] deals with T1, Muscarinic acetylcholine receptor M1 (Homo sapiens, UniProt P11229).
T1 sequence (P11229 whole entry): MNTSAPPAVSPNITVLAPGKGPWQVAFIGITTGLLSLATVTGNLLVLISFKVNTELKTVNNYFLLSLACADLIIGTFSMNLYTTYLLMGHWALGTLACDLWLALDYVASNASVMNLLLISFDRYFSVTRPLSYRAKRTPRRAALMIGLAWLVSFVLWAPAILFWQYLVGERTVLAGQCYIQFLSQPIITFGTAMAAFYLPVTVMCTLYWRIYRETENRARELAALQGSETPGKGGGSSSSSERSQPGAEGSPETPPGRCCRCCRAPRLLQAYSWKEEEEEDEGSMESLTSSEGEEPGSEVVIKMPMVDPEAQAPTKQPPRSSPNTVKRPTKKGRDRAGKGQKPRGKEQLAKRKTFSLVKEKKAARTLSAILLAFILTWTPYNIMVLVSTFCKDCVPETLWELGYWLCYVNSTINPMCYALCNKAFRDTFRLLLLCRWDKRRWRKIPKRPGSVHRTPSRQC
The test is classed as functional, cell-based.

For another test, the target named is T2, Adenosine receptor A3 (Homo sapiens, UniProt P0DMS8).
T2 sequence (P0DMS8 whole entry): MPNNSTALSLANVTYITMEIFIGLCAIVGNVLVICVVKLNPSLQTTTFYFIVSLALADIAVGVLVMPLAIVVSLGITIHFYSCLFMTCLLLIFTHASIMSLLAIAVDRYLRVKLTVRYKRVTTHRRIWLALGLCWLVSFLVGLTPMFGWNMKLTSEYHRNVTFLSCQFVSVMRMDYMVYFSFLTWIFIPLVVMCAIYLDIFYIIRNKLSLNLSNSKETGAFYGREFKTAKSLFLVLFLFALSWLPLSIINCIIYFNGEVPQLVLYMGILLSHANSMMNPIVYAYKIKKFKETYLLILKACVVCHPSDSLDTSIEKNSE

For test [2], the target named is T3, Cannabinoid receptor 1 (Homo sapiens, UniProt P21554). The test is classed as functional, cell-based.
The target in test [3] is Beta-1 adrenergic receptor (Homo sapiens, UniProt P08588). The test is classed as functional.
Test [4] has as its target Gamma-aminobutyric acid receptor subunit alpha-1 (Rattus norvegicus, UniProt P62813).
In test [5] the target is T4, 5-hydroxytryptamine receptor 2B (Homo sapiens, UniProt P41595). The test is classed as functional, cell-based.
In the next test the target is T5, B2 bradykinin receptor (Homo sapiens, UniProt P30411).
T5 sequence (P30411 whole entry): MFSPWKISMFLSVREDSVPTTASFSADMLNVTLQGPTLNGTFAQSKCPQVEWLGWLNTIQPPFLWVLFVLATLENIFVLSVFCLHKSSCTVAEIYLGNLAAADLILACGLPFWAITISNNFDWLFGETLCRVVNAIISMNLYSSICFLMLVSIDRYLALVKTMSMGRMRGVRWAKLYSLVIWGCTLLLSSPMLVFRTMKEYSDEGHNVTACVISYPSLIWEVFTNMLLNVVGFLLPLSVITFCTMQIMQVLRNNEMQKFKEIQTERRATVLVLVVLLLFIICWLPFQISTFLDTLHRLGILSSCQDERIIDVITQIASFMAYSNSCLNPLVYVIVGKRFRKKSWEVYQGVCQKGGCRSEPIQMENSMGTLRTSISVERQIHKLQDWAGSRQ

The target of test [6] is T6, Alpha-2B adrenergic receptor (Homo sapiens, UniProt P18089).
T6 sequence (P18089 whole entry): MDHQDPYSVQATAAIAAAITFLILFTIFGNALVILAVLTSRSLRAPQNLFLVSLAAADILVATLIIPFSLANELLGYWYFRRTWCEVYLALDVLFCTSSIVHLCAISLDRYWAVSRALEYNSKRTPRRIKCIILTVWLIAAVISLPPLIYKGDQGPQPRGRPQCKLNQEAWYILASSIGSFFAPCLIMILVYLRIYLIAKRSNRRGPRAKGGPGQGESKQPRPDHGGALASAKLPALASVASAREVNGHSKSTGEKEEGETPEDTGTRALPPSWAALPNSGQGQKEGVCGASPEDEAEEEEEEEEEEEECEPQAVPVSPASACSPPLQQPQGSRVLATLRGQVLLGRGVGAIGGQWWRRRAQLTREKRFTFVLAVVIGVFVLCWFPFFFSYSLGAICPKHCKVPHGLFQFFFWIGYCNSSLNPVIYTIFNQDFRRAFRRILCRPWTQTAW

Test [7] deals with T7, 5-hydroxytryptamine receptor 2C (Homo sapiens, UniProt P28335).
T7 sequence (P28335 whole entry): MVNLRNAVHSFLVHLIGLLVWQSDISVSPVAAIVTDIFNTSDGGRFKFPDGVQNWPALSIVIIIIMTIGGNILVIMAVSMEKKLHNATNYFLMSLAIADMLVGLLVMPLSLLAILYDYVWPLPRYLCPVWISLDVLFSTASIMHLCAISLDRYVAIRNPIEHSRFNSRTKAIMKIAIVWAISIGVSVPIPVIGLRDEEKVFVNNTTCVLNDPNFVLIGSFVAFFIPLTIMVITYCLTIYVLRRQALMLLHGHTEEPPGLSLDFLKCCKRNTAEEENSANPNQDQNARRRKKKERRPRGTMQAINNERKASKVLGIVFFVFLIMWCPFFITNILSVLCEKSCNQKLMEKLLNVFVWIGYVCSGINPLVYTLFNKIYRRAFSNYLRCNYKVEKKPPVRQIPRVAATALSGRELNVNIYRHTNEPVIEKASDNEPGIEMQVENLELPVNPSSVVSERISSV

Test [8] deals with Sodium-dependent dopamine transporter (Homo sapiens, UniProt Q01959).
Test [9] has as its target T3, Cannabinoid receptor 1. The test is classed as functional, cell-based. The source holds these as a separate data set.
Test [10] addresses T4, 5-hydroxytryptamine receptor 2B. The test is classed as functional, cell-based. The source holds these as a separate data set.
The target in the next test is Vasopressin V1a receptor (Homo sapiens, UniProt P37288).
Test [11] deals with Growth hormone secretagogue receptor type 1 (Homo sapiens, UniProt Q92847).

The structures appear in SMILES notation.
Further: assay procedure not described here.

T4 sequence (P41595 whole entry): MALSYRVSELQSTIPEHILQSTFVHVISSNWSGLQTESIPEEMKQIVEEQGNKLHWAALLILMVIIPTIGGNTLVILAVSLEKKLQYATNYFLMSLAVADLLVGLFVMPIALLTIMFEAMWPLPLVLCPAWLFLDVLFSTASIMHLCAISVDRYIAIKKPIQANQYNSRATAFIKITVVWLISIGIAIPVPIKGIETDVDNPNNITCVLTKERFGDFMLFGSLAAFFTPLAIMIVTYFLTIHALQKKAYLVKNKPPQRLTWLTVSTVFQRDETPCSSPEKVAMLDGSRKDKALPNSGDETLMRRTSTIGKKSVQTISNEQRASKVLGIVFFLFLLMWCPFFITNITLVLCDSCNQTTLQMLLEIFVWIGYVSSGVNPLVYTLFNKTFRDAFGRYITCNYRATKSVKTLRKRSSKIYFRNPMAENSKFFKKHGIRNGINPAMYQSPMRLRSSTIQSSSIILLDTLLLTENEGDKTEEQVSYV
T3 sequence (P21554 whole entry): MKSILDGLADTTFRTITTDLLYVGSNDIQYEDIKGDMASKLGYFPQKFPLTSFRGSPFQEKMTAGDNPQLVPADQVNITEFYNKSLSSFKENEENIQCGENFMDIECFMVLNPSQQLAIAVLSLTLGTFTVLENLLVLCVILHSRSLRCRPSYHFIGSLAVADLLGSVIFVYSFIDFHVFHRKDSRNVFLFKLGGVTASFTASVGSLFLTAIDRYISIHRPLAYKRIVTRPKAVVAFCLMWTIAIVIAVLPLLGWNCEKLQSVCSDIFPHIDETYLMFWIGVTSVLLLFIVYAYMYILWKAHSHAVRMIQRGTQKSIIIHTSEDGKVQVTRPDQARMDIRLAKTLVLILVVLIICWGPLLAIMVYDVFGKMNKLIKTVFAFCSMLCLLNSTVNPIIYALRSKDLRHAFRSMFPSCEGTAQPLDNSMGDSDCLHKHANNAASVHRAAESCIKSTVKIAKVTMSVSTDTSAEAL
Sequence of Gamma-aminobutyric acid receptor subunit alpha-1 (P62813 whole entry): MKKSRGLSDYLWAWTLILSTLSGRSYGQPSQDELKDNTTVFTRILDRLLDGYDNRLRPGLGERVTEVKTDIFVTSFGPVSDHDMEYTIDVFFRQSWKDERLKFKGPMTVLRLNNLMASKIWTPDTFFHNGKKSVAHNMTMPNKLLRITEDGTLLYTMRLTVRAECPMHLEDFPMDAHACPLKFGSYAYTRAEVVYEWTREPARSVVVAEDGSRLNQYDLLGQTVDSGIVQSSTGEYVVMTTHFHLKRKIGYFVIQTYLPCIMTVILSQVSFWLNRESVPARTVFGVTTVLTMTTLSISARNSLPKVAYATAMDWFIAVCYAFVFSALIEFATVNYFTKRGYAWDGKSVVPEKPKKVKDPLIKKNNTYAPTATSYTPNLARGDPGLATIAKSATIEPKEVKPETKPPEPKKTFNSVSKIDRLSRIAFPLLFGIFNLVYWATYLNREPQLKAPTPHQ
Sequence of Vasopressin V1a receptor (P37288 whole entry): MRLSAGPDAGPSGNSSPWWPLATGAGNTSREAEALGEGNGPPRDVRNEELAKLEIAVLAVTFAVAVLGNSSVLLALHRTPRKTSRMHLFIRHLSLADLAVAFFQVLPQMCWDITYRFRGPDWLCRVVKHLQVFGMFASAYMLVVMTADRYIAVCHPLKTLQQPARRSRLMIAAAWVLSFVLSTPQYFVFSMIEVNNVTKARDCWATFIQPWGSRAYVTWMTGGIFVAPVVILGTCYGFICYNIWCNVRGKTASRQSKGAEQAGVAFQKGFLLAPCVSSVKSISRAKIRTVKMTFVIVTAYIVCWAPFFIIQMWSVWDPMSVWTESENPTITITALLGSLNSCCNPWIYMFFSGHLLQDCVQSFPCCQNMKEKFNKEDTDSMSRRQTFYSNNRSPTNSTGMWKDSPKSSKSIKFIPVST
Sequence of Growth hormone secretagogue receptor type 1 (Q92847 whole entry): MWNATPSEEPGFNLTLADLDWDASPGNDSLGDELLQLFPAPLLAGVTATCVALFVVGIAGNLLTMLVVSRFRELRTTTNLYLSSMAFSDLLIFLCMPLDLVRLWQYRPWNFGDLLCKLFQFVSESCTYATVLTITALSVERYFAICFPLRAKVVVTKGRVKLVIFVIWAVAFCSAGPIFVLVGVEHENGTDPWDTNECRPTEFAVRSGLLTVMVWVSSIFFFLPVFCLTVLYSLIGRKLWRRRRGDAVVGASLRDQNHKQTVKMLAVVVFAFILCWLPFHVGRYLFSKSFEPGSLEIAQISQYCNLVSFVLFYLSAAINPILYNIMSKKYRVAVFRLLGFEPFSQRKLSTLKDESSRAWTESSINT
Sequence of Sodium-dependent dopamine transporter (Q01959 whole entry): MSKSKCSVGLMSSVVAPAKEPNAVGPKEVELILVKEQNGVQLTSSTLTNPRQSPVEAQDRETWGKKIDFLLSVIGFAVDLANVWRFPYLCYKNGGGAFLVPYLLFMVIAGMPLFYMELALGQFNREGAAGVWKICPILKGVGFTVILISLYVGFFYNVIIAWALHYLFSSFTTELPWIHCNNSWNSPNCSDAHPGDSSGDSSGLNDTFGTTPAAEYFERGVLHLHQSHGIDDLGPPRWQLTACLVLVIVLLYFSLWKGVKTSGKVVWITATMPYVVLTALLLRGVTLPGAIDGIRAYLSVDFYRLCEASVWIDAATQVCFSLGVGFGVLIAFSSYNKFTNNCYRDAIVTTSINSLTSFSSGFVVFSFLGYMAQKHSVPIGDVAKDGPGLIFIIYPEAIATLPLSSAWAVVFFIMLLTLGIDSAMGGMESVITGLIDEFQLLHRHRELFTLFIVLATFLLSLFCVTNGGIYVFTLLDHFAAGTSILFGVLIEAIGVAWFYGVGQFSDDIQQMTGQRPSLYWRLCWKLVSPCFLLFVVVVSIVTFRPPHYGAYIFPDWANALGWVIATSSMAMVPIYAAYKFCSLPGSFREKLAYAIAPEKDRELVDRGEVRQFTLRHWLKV
Sequence of Beta-1 adrenergic receptor (P08588 whole entry): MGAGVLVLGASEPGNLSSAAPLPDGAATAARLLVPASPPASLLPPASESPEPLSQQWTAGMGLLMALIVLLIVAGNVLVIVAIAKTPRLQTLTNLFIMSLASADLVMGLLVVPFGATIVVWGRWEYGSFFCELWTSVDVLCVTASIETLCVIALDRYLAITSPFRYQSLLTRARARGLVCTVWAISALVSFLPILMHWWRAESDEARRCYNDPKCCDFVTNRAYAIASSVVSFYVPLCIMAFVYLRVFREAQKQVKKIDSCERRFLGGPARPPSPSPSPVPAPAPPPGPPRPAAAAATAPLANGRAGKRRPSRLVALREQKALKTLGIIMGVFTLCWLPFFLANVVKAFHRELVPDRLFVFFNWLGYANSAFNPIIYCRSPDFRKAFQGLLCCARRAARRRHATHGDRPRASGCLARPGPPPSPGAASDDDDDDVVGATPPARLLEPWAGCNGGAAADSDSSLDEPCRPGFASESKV

For the compound `Cc1cc2c(cc1S(N)(=O)=O)S(=O)(=O)CCC2`, the AC50 (in [1]; at Adenosine receptor A3) was > 30 µM throughout.

Take `C[C@H](N[C@@H](CCc1ccccc1)C(=O)O)C(=O)N1Cc2ccccc2C[C@H]1C(=O)O`: the AC50 (in test [1]; on Adenosine receptor A3) was > 30 µM each time.

As to `O=C(O)[C@@H]1C[C@@H](O)CN1`, the AC50 (in test [1]; at Adenosine receptor A3) was > 30 µM in each case.

Regarding `CC1(C)S[C@@H]2[C@H](/N=C/N3CCCCCC3)C(=O)N2[C@H]1C(=O)O` [AMDINOCILLIN], the AC50 (in test [1]; on Adenosine receptor A3) was > 30 µM each time.

As for `CC(=O)[C@]1(N)Cc2c(O)c3c(c(O)c2[C@@H](O[C@H]2C[C@H](O)[C@H](O)CO2)C1)C(=O)c1ccccc1C3=O` [AMRUBICIN], the AC50 in [1] was 18.4 µM; at Adenosine receptor A3, > 30 µM.

As for `NC(=O)[C@@H]1CC[C@@H]2CN1C(=O)N2OS(=O)(=O)O` [AVIBACTAM], the half-maximal activity concentration (AC50) (in [1]; on Adenosine receptor A3) was > 30 µM throughout.

On to `CC(C)(C)NC(=O)N[C@H](C(=O)N1C[C@H]2[C@@H]([C@H]1C(=O)NC(CC1CCC1)C(=O)C(N)=O)C2(C)C)C(C)(C)C` (stereo partly specified) [BOCEPREVIR], for which the AC50 (in test [1]; at Adenosine receptor A3) was > 30 µM each time.

Take `Cc1ncc2c(c1O)COC2c1ccc(Cl)cc1` (stereo unspecified) [CICLETANINE]: the AC50 (in test [1]; at Adenosine receptor A3) was > 30 µM each time.

Regarding `Cc1cn([C@H]2O[C@@H](CO)[C@H](O)[C@H]2F)c(=O)[nH]c1=O` [CLEVUDINE], the AC50 (in [1]; on Adenosine receptor A3) was > 30 µM throughout.

Take `N#Cc1ccc(Oc2ccc3c(c2)COB3O)cc1` [CRISABOROLE]: the half-maximal activity concentration (AC50) (in [1]; on Adenosine receptor A3) was > 30 µM in each case.

Consider `CC(=O)[C@H]1CC[C@H]2[C@@H]3C=CC4=CC(=O)CC[C@@]4(C)[C@@H]3CC[C@]12C` [DYDROGESTERONE], for which the concentration at half-maximal activity (AC50) (in [1]; on Adenosine receptor A3) was > 30 µM throughout.

Consider `CC(=O)O[C@H]1Cc2ccccc2N(C(N)=O)c2ccccc21` [ESLICARBAZEPINE ACETATE], for which the AC50 (in test [1]; at Adenosine receptor A3) was > 30 µM in each case.

In the case of `C[C@@H]1C[C@H]2[C@@H]3C[C@H](F)C4=CC(=O)C=C[C@]4(C)[C@@]3(F)[C@@H](O)C[C@]2(C)[C@@]1(OC(=O)c1ccco1)C(=O)SCF` [FLUTICASONE FUROATE], the AC50 on Cannabinoid receptor 1 [2] is > 30 µM; in test [1], > 30 µM; in [3], > 10 µM; in [4], > 30 µM; in test [5] it was > 10 µM; at B2 bradykinin receptor, > 10 µM. Besides, the AC50 in [6] is > 10 µM; in test [7], > 30 µM; in test [8], > 10 µM; at Cannabinoid receptor 1 [9], > 30 µM; in [10], > 10 µM; on Vasopressin V1a receptor it was > 10 µM. Also, the half-maximal activity concentration (AC50) in test [11] was > 10 µM.

Turning to `Cc1ccc(S(=O)(=O)NC(=O)NC2CCCCC2)cc1` [GLYCYCLAMIDE], the AC50 was > 30 µM in [1] and 12.7 µM at Adenosine receptor A3.

Take `CN1CCCN(C(c2ccccc2)c2ccc(Cl)cc2)CC1` (stereo unspecified) [HOMOCHLORCYCLIZINE]: the half-maximal activity concentration (AC50) (in test [1]; on Adenosine receptor A3) was > 30 µM each time.

On to `CC(=O)OCC(=O)[C@@]1(O)CC[C@H]2[C@@H]3CCC4=CC(=O)CC[C@]4(C)[C@H]3[C@@H](O)C[C@@]21C` [HYDROCORTISONE ACETATE], for which the half-maximal activity concentration (AC50) (in test [1]; on Adenosine receptor A3) was > 30 µM each time.

As to `CC(COc1ccccc1)NC(C)C(O)c1ccc(O)cc1` (stereo unspecified) [ISOXSUPRINE], the half-maximal activity concentration (AC50) (in test [1]; at Adenosine receptor A3) was > 30 µM each time.

Regarding `Cc1oc(=O)oc1COC(=O)[C@@H]1N2C(=O)[C@@H](NC(=O)[C@H](N)c3ccccc3)[C@H]2SC1(C)C` [LENAMPICILLIN], the AC50 (in test [1]; at Adenosine receptor A3) was > 30 µM each time.

Regarding `COc1ccc(OC)c(C(O)C(C)N)c1` (stereo unspecified) [METHOXAMINE], the AC50 (in [1]; on Adenosine receptor A3) was > 30 µM in each case.

With `CC1(CCN2CCCCC2)C(=O)CCc2ccccc21` (stereo unspecified) [NEPINALONE], the concentration at half-maximal activity (AC50) (in test [1]; on Adenosine receptor A3) was > 30 µM each time.

As to `COc1cccc(C(=O)CCN[C@@H](C)[C@H](O)c2ccccc2)c1` [OXYFEDRINE], the AC50 (in [1]; at Adenosine receptor A3) was > 30 µM each time.

Turning to `CC[N+](C)(CC)CCOC(=O)C(O)(c1ccccc1)C1CCCCC1` (stereo unspecified) [OXYPHENONIUM], the AC50 (in test [1]; on Adenosine receptor A3) was > 30 µM throughout.

With `C[C@@H]1C[C@H]2[C@@H]3C[C@H](F)C4=CC(=O)C=C[C@]4(C)[C@H]3[C@@H](O)C[C@]2(C)[C@@]1(O)C(=O)CO` [PARAMETHASONE], the concentration at half-maximal activity (AC50) (in test [1]; at Adenosine receptor A3) was > 30 µM each time.

For `CCC[C@H](N[C@@H](C)C(=O)N1[C@H](C(=O)O)C[C@@H]2CCCC[C@@H]21)C(=O)OCC` [PERINDOPRIL], the half-maximal activity concentration (AC50) (in test [1]; on Adenosine receptor A3) was > 30 µM in each case.

Take `N[C@@H](Cc1ccccc1)C(=O)O` [PHENYLALANINE]: the AC50 (in [1]; at Adenosine receptor A3) was > 30 µM each time.

As for `CCCn1cnc2c1c(=O)n(CCCCC(C)=O)c(=O)n2C` [PROPENTOFYLLINE], the concentration at half-maximal activity (AC50) (in test [1]; on Adenosine receptor A3) was > 30 µM in each case.

Take `Clc1ccc(C(Cn2ccnc2)OCc2csc3c(Cl)cccc23)c(Cl)c1` (stereo unspecified) [SERTACONAZOLE]: the figures for the concentration at half-maximal activity (AC50) (in test [1]; at Adenosine receptor A3) were > 30 µM and 1.63 µM, respectively.

Regarding `CC(OCCN1CCCCCC1)(c1ccccc1)c1ccc(Cl)cc1` (stereo unspecified) [SETASTINE], the AC50 (in test [1]; at Adenosine receptor A3) was > 30 µM each time.

For `CCCSc1nc(N[C@@H]2C[C@H]2c2ccc(F)c(F)c2)c2nnn([C@@H]3C[C@H](OCCO)[C@@H](O)[C@H]3O)c2n1` [TICAGRELOR], the half-maximal activity concentration (AC50) in test [1] is > 30 µM; at Adenosine receptor A3 it was 0.106 µM.

`c1ccc2c(SC3=NCCN3)c[nH]c2c1` [TINAZOLINE]: the concentration at half-maximal activity (AC50) (in test [1]; on Adenosine receptor A3) was > 30 µM each time.
